Experimental data published in US20260191836A1, “SOLID PREPARATION CONTAINING OXIDIZED CLOPIDOGREL AND PREPARATION METHOD THEREFOR” (CHENGDU SHIBEIKANG BIOMEDICAL TECHNOLOGY CO., LTD., priority 2022, published 2026).
Entries after “also recorded” stand apart in the source; their conditions may differ.

Assay: Properties of the drug substance (solubility, BCS class, stability)
Format: physicochemical

With `COC(=O)[C@H](c1ccccc1Cl)N1CC[C@@H]2SC(=O)C=C2C1` [(7aS, 2′S)-2-oxo-clopidogrel, methyl (S)-2-(2-chlorophenyl)-2-((S)-2-oxo-2,6,7,7a-tetrahydrothieno[3,2-c]pyridin-5 (4H)-yl)acetate] the BCS biopharmaceutical classification was “low-solubility and high-permeability”, the “stability of the drug substance (in words)” value was “extremely prone to oxidative degradation; also recorded: instability under high temperature, acid and alkali conditions” and the solubility in acetonitrile (acetonitrile) was “soluble”. For the same molecule, the solubility in methanol (methanol) was “slightly soluble” and the solubility in water (water) was “almost insoluble”.
